Measured values from US20170190671A1, “BIS(ARYL)CATECHOL DERIVATIVES AS HERBICIDES” (E I DU PONT DE NEMOURS AND COMPANY, priority 2014, published 2017).

Key:
Type in all cases: in vivo
[1] = tested on: Italian ryegrass (Lolium multiflorum); test: Test A postemergence; conditions: 0 to 100 scale
Outline: (§1)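 Visual injury scored 0–100 (100 = complete control) against untreated controls about 10 days after treatment in a greenhouse. Test chemicals, formulated with surfactant in non-phytotoxic solvent, were sprayed on soil preemergence or on 2-10 cm, one- to two-leaf plants postemergence.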

[2] = tested on: barnyardgrass (Echinochloa crus-galli); test: Test A postemergence; conditions: 0 to 100 scale
Outline: as §1

[3] = tested on: giant foxtail (Setaria faberii); test: Test A postemergence; conditions: 0 to 100 scale
Outline: as §1

[4] = tested on: blackgrass (Alopecurus myosuroides); test: Test A postemergence; conditions: 0 to 100 scale
Outline: as §1

[5] = tested on: galium (catchweed bedstraw, Galium aparine); test: Test A postemergence; conditions: 0 to 100 scale
Outline: as §1

[6] = tested on: wheat (Triticum aestivum); test: Test A postemergence; conditions: 0 to 100 scale
Outline: as §1

kochia (Kochia scoparia) [7] = test: Test A postemergence; conditions: 0 to 100 scale
Outline: as §1

[8] = tested on: ragweed (common ragweed, Ambrosia elatior); test: Test A postemergence; conditions: 0 to 100 scale
Outline: as §1

corn (Zea mays) = test: Test A postemergence; conditions: 0 to 100 scale
Outline: as §1

[9] = tested on: pigweed (Amaranthus retroflexus); test: Test A postemergence; conditions: 0 to 100 scale
Outline: as §1

rice (Oryza sativa) = test: Test B flooded paddy; conditions: 250 g ai/ha, Flood, 13 to 15 days, scale 0 (no effect) to 100 (complete control)
Description: (§2) At time of treatment, test pots were flooded to 3 cm above the soil surface, treated by application of test compounds directly to the paddy water, and then maintained at that water depth for the duration of the test. Treated plants and controls were maintained in a greenhouse for 13 to 15 days, after which time all species were compared to controls and visually evaluated. […] A dash (-) response means no test result.

[10] = tested on: barnyardgrass (Echinochloa crus-galli); test: Test B flooded paddy; conditions: 250 g ai/ha, Flood, 13 to 15 days, scale 0 (no effect) to 100 (complete control)
Description: as §2

[11] = tested on: ducksalad (Heteranthera limosa); test: Test B flooded paddy; conditions: 250 g ai/ha, Flood, 13 to 15 days, scale 0 (no effect) to 100 (complete control)
Description: as §2

[12] = tested on: sedge, umbrella (small-flower umbrella sedge, Cyperus difformis); test: Test B flooded paddy; conditions: 250 g ai/ha, Flood, 13 to 15 days, scale 0 (no effect) to 100 (complete control)
Description: as §2

[13] = tested on: Italian ryegrass (Lolium multiflorum); test: Test A preemergence; conditions: 0 to 100 scale (0 no effect, 100 complete control)
Outline: as §1

[14] = tested on: barnyardgrass (Echinochloa crus-galli); test: Test A preemergence; conditions: for Barnyardgrass plant response rating: 0 to 100 scale (0 no effect, 100 complete control); for Plant response rating, Barnyardgrass: 0 to 100 scale
Outline: as §1

[15] = tested on: giant foxtail (Setaria faberii); test: Test A preemergence; conditions: 0 to 100 scale (0 no effect, 100 complete control)
Outline: as §1

kochia (Kochia scoparia) [16] = test: Test A preemergence; conditions: 0 to 100 scale (0 no effect, 100 complete control)
Outline: as §1

[17] = tested on: ragweed (common ragweed, Ambrosia elatior); test: Test A preemergence; conditions: 0 to 100 scale (0 no effect, 100 complete control)
Outline: as §1

[18] = tested on: pigweed (Amaranthus retroflexus); test: Test A preemergence; conditions: 0 to 100 scale (0 no effect, 100 complete control)
Outline: as §1

SMILES | Plant response rating, Ryegrass, Italian ([1]; 31 g ai/ha) | Plant response rating, Ryegrass, Italian ([1]; 125 g ai/ha) | Plant response rating, Barnyardgrass ([2]; 31 g ai/ha) | Plant response rating, Barnyardgrass ([2]; 125 g ai/ha) | Plant response rating, Foxtail, Giant ([3]; 31 g ai/ha) | Plant response rating, Foxtail, Giant ([3]; 125 g ai/ha) | Plant response rating, Blackgrass ([4]; 31 g ai/ha) | Plant response rating, Blackgrass ([4]; 125 g ai/ha) | Plant response rating, Galium ([5]; 31 g ai/ha) | Plant response rating, Galium ([5]; 125 g ai/ha) | Plant response rating, Wheat ([6]; 31 g ai/ha) | Plant response rating, Wheat ([6]; 125 g ai/ha) | Plant response rating, Kochia (kochia (Kochia scoparia) [7]; 31 g ai/ha) | Plant response rating, Kochia (kochia (Kochia scoparia) [7]; 125 g ai/ha) | Plant response rating, Ragweed ([8]; 31 g ai/ha) | Plant response rating, Ragweed ([8]; 125 g ai/ha) | Plant response rating, Corn (corn (Zea mays); 31 g ai/ha) | Plant response rating, Corn (corn (Zea mays); 125 g ai/ha) | Plant response rating, Pigweed ([9]; 31 g ai/ha) | Plant response rating, Pigweed ([9]; 125 g ai/ha) | other results
N#Cc1cccc(Oc2ncc(Cl)cn2)c1Oc1ccc(OC(F)(F)F)cc1 [Compound 33] | 0 | 10 | 0 | 10 | 10 | 20 | 0 | 10 | 10 | 30 | 0 | 0 | 20 | 40 | 0 | 10 | 0 | 10 | 30 | 80 | Plant response rating, Rice (rice (Oryza sativa)): 0; Plant response rating, Barnyardgrass [10]: 0; Plant response rating, Ducksalad [11]: 0; Plant response rating, Sedge, Umbrella [12]: 0; Ryegrass, Italian plant response rating ([13]; 31 g ai/ha): 0; Ryegrass, Italian plant response rating ([13]; 125 g ai/ha): 0; Barnyardgrass plant response rating ([14]; 31 g ai/ha): 0; Plant response rating, Barnyardgrass ([14]; 125 g ai/ha): 10; Foxtail, Giant plant response rating ([15]; 31 g ai/ha): 10; Foxtail, Giant plant response rating ([15]; 125 g ai/ha): 40; Kochia plant response rating (kochia (Kochia scoparia) [16]; 31 g ai/ha): 0; Kochia plant response rating (kochia (Kochia scoparia) [16]; 125 g ai/ha): 0; Ragweed plant response rating ([17]; 31 g ai/ha): 0; Ragweed plant response rating ([17]; 125 g ai/ha): 0; Pigweed plant response rating ([18]; 31 g ai/ha): 0; Pigweed plant response rating ([18]; 125 g ai/ha): 30
N#Cc1cccc(Oc2ncc(C(F)(F)F)cn2)c1Oc1ncc(C(F)(F)F)cn1 [Compound 35] | 0 | 30 | 0 | 40 | 0 | 20 | 10 | 50 | 40 | 70 | 0 | 0 | 60 | 90 | 10 | 20 | 0 | 30 | 70 | 100 | Plant response rating, Rice (rice (Oryza sativa)): 40; Plant response rating, Barnyardgrass [10]: 0; Plant response rating, Ducksalad [11]: 60; Plant response rating, Sedge, Umbrella [12]: 60; Ryegrass, Italian plant response rating ([13]; 31 g ai/ha): 0; Ryegrass, Italian plant response rating ([13]; 125 g ai/ha): 10; Barnyardgrass plant response rating ([14]; 31 g ai/ha): 0; Plant response rating, Barnyardgrass ([14]; 125 g ai/ha): 50; Foxtail, Giant plant response rating ([15]; 31 g ai/ha): 30; Foxtail, Giant plant response rating ([15]; 125 g ai/ha): 90; Kochia plant response rating (kochia (Kochia scoparia) [16]; 31 g ai/ha): 0; Kochia plant response rating (kochia (Kochia scoparia) [16]; 125 g ai/ha): 60; Ragweed plant response rating ([17]; 31 g ai/ha): 0; Ragweed plant response rating ([17]; 125 g ai/ha): 10; Pigweed plant response rating ([18]; 31 g ai/ha): 100; Pigweed plant response rating ([18]; 125 g ai/ha): 100
Fc1ccc(Oc2ccc(C(F)(F)F)cn2)c(Oc2ncc(Cl)cn2)c1 [Compound 45, 5-chloro-2-[5-fluoro-[2-[5-(trifluoromethyl)pyridin-2-yl]oxy]phenoxy]pyrimidine] | 0 | 0 | 0 | 0 | 0 | 0 | 0 | 30 | 60 | 70 | 0 | 20 | 20 | 80 | 0 | 20 | 0 | 30 | 20 | 20 | Plant response rating, Rice (rice (Oryza sativa)): 0; Plant response rating, Barnyardgrass [10]: 0; Plant response rating, Ducksalad [11]: 75; Plant response rating, Sedge, Umbrella [12]: 70; Ryegrass, Italian plant response rating ([13]; 31 g ai/ha): 0; Ryegrass, Italian plant response rating ([13]; 125 g ai/ha): 0; Barnyardgrass plant response rating ([14]; 31 g ai/ha): 0; Barnyardgrass plant response rating ([14]; 125 g ai/ha): 30; Foxtail, Giant plant response rating ([15]; 31 g ai/ha): 30; Foxtail, Giant plant response rating ([15]; 125 g ai/ha): 100; Kochia plant response rating (kochia (Kochia scoparia) [16]; 31 g ai/ha): 0; Kochia plant response rating (kochia (Kochia scoparia) [16]; 125 g ai/ha): 10; Ragweed plant response rating ([17]; 31 g ai/ha): 0; Ragweed plant response rating ([17]; 125 g ai/ha): 10; Pigweed plant response rating ([18]; 31 g ai/ha): 0; Pigweed plant response rating ([18]; 125 g ai/ha): 0
